# Source: article PMC12067093, “Discovery and optimisation of a covalent ligand for TRIM25 and its application to targeted protein ubiquitination” (Chemical Science, 2025)
# Key:
# E1 (His6-UBA1) = target: T1, E1 (His6-UBA1) (Mus musculus, UniProt Q02053); assay: E1~Ub loading assay; format: biochemical; conditions: E1 2 μM pre-treated with compound 100 μM for 30 min at RT; reducing and non-reducing conditions
# T1 construct: made in house
# T1 sequence (Q02053 1-1058): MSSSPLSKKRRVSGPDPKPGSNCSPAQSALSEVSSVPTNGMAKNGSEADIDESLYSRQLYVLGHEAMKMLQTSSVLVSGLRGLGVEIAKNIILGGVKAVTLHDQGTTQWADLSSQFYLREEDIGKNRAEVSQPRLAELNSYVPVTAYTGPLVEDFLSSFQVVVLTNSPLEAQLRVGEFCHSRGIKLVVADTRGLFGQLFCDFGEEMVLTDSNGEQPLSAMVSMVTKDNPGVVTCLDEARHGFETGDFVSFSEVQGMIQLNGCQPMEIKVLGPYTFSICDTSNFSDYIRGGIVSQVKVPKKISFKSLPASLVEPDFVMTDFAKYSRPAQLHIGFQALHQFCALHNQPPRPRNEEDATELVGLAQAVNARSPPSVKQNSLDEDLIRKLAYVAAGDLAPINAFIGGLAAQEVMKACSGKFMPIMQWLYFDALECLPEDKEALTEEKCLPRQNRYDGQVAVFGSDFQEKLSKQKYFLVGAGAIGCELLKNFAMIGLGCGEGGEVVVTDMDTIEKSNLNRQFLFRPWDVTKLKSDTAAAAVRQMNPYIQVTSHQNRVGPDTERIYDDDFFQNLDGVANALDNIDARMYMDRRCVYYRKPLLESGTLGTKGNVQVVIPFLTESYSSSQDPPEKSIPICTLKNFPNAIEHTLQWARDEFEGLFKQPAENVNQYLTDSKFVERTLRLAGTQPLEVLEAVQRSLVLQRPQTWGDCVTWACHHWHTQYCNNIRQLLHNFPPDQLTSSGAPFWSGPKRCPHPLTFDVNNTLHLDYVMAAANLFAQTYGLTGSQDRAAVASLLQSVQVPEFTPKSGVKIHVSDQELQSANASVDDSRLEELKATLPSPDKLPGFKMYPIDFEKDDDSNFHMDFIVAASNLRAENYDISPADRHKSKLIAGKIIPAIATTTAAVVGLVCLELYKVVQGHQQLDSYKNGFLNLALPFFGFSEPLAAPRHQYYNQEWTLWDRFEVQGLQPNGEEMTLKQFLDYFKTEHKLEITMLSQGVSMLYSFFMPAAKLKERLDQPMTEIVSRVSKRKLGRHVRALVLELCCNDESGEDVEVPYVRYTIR
# Method: 2 Supplementary Figure 6 Further biochemical characterisation of purified
# 4 A) Schematic of auto-ubiquitination assay, with pre-labelled full-length TRIM25. Created in
# 5 BioRender. McPhie, K. (2025) https://BioRender.com/q86g447; B) Auto-ubiquitination time
# 7 µM) was incubated with compounds (50 µM) or DMSO (1%) for 16 h at 4 °C, before addition
# 8 of E1 (0.2 µM), UBCH5B (2 µM), Ub (50 µM), UbATTO (1 µM). The assay was initiated by the
# 9 addition of ATP, and performed for 60 min at 30 °C. Time point 0 was taken before the addition
# 10 of ATP. Samples were analysed by SDS-PAGE, with Coomassie staining and scanning at 700
# 11 nm wavelength (for ATTO emission).
# 12 of His10-TRIM25 (which has not been ubiquitinated) where % His10-TRIM25 (relative to time =
# 13 0 min) is plotted vs reaction time. Data are presented as n = 1; D) E1~Ub loading assay with
# E1 (2 µM) was incubated with
# 15 compounds (100 µM) or DMSO (1%) for 30 min at RT, before addition of UBCH5B (2 µM) and
# 16 Ub (10 µM). The assay was initiated by the addition of ATP (1 mM), and performed for 5 min
# 17 at 30 °C. After 5 min, samples were treated with either loading dye, or loading dye with DTT,
# 18 and analysed by SDS-PAGE, with Coomassie staining; E) Cellular target identification for 11
# 19 (50 µM, left, and 10 µM, right, 4 h incubation at 37 °C in live THP-1 cells) using an […]
# [1] = target: T2, TRIM25 (peptide FTYC^498SQVLGLHC^506YK) (Homo sapiens, UniProt Q14258); assay: IA-DTB competitive chemoproteomics in live THP-1 cells; format: cell-based, 9606; conditions: 4 h at 37 °C, compound tested at 50 μM and 10 μM, significant if FC ≤ 0.25, p-value ≤ 0.01
# T2 construct: endogenous in cells; host or cells: THP-1
# T2 sequence (Q14258 whole entry): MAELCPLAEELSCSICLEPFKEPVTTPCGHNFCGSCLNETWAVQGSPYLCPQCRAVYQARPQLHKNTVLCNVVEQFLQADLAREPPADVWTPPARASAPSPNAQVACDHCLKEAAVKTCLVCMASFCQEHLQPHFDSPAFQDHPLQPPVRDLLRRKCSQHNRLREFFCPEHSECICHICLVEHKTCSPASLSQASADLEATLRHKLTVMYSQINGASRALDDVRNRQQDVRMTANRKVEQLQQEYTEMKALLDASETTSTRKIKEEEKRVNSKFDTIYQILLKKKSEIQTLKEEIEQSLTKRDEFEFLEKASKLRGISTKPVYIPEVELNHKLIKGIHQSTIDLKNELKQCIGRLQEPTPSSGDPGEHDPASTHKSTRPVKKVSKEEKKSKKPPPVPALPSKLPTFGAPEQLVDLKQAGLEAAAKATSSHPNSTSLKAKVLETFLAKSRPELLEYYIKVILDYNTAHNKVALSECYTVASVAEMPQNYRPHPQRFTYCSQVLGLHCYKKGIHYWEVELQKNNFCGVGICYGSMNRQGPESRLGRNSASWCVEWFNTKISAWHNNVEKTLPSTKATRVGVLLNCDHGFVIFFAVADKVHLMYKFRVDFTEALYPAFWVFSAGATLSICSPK
SMILES,E1~Ub loading (E1 (His6-UBA1)),TRIM25 engagement in cells [1]
Cc1cc(C(=O)N2CCCN(C(=O)CCl)CC2)ccc1-c1ccccc1 [Compound 10],not inhibited,engaged TRIM25 in cells at the PRYSPRY domain at 50 μM
CC1Cc2ccccc2N1C(=O)C1CCCN(C(=O)CCl)C1 (stereo not shown) [Compound 11],not inhibited,not observed to engage TRIM25
